In paper PMC2982748 (Arteriosclerosis, thrombosis, and vascular biology, 2010) one finds EC50 data, which are given here for two compounds.

Each structure is given as a SMILES string.

What is called EC50 is the concentration giving half of the maximal effect. Low values mean higher potency in that assay, high ones lower potency in that assay.

The experiment deals with P2Y12 (Homo sapiens, UniProt Q9H244). The experiment in a line: β-arrestin recruitment. Type of experiment: cell-based.
P2Y12, sequence (Q9H244 whole entry): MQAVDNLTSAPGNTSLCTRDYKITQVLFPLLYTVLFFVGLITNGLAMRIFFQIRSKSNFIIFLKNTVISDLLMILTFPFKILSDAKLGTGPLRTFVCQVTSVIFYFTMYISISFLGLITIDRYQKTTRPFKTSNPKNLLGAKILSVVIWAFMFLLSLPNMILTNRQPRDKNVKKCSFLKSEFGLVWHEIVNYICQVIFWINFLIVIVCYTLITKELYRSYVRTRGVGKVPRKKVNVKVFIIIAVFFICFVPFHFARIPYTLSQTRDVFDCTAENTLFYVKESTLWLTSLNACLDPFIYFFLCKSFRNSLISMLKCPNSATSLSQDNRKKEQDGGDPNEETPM

`CCCCC/C=C\C\C=C/C=C/C=C/[C@@H](SC[C@H](N)C(=O)O)[C@@H](O)CCCC(=O)O` [LTE4] displayed an EC50 of 1.3e-05 µM.
The value for `Nc1ncnc2c1ncn2[C@@H]1O[C@H](COP(=O)(O)OP(=O)(O)O)[C@@H](O)[C@H]1O` [ADP] was 5 µM.
